How the values were obtained:
[1] = test system: MPTP-treated mice; assay: inked paw stride length in the MPTP mouse model of Parkinson's disease, initial study (Example 5); assay type: in vivo; settings: for effect on stride length of saline-treated mice, in words: 20 minutes after dosing
Procedure: (§1) Adult male C57BL/6J; retired breeders, aged between 7-9 months (Jackson Laboratory, Bar Harbor, Me., USA), singly housed.
Mice received 2 subcutaneous injections of methylphenyltetrahydropyridine (“MPTP”) at a dose of 15 mg/kg (free base) with a 10-12 hour interval between injections. Control mice (sham lesion groups) were administered saline instead of MPTP.
Seven days after MPTP or saline administration, OM69 was administered to mice. For each dose, a 100× stock of OM69 compound was prepared in 100% DMSO and subsequently diluted 100× into phosphate buffered saline (PBS). Then 100 μL of this 1× solution was administered via intraperitoneal (IP) injection.
Prior to injection with MPTP or saline, animals were pre-trained to walk across a clean sheet of paper into their home cage without stopping. For assessment of stride length, animals had their forepaws placed in black ink and the length of forepaw steps during normal walking (in a straight line only) was measured. The animals were immediately put back into their home cage upon completion of the task. Stride length was determined by measuring the distance between each step on the same side of the body, measuring from the middle toe of the first step to the heel of the second step. An average of at least four clear steps was calculated.
Retired breeder male mice (12-15 per group, ˜48-60 animals total) were treated with either saline or 2×15 mg/kg MPTP (12 saline; […]) to induce a Parkinsonian state (neurochemical loss of dopamine with corresponding behavioral deficits).
On day eight stride length was measured again, and the control value for stride length was derived from the stride length of saline-treated animals. Following this measurement the first treatments with L-dopa (5 mg/kg) or OM69 (0.1 mg/kg) were administered on day eight, as shown in FIG. 8. Stride length was then measured for each animal 20 minutes after dosing. […] Dosing with the treatments shown in FIG. 8 was carried out on successive days, with stride length measured 20 minutes after each dosing. As mentioned above, it was previously determined from pharmacokinetic studies that OM69 is washed out of the mice within 12 hours after dosing, so the stride length test carried out 20 minutes after dosing was believed to be measuring the effect of only the compounds administered on the day of treatment.
On day nine Group 1 animals were treated with L-dopa (1 mg/kg), and Group 2 animals were treated with OM69 (0.01 mg/kg). On day ten the treatment groups were crossed over, and Group 1 animals were treated with OM69 (0.01 mg/kg), and Group 2 animals were treated with L-dopa (1 mg/kg).
As further shown in FIG. 8, for the combination studies, all the mice in Group 1 and Group 2 were combined. On day 11 following MPTP administration, all the animals in Group 1 and Group 2 (n=9) were treated with the combination of L-dopa (1 mg/kg) and OM69 (0.01 mg/kg), with the stride length test carried out 20 minutes after dosing. On day 12 following MPTP administration, all the animals in Group 1 and Group 2 (n=9) were treated with the combination of L-dopa (1 mg/kg) and OM69 (0.03 mg/kg) with the stride length test carried out 20 minutes after dosing. In these combination studies carried out on day 11 and day 12, the average stride length data from two of the nine animals was not scorable because these two animals either ran rather than walking at a normal speed, or they kept starting and stopping rather than walking continuously. Therefore, these two animals were excluded, and only the remaining seven animals (n=7) were scored for the combination studies.
To assess and compare the effects of OM69 and L-dopa at these doses, data from mice with equivalent dosing was pooled. Thus, the average stride length for animals treated with L-dopa (1 mg/kg) was determined using measurements obtained from all nine animals. […]

[2] = target: PDE7A (Homo sapiens (Human), UniProt Q13946); assay: PDE7 phosphodiesterase scintillation proximity assay (SPA), PDE7A; assay type: biochemical; settings: for Fold Selectivity, PDE7A: IC50 against PDE7A divided by IC50 against PDE7A; for selectivity for inhibition of the PDE7A enzyme as compared to the other PDEs: versus PDE1B, 2A, 3A, 4A, 5A, 8A, 9A, 10A, 11A
[3] = target: PDE7B (Homo sapiens (Human), UniProt Q9NP56); assay: PDE7 phosphodiesterase scintillation proximity assay (SPA), PDE7B; assay type: biochemical; settings: for Fold Selectivity for PDE7A versus PDE7B: IC50 against PDE7B divided by IC50 against PDE7A; for 7A/7B Ratio: ratio of the PDE7B and PDE7A IC50 values; for selectivity for inhibition of the PDE7B enzyme as compared to the other PDEs: versus PDE1B, 2A, 3A, 4A, 5A, 8A, 9A, 10A, 11A
[4] = target: PDE8A (Homo sapiens (Human), UniProt O60658); assay: PDE selectivity SPA assay, PDE8A; assay type: biochemical; settings: IC50 against PDE8A divided by IC50 against PDE7A
[5] = target: PDE11A (Homo sapiens (Human), UniProt Q9HCR9); assay: PDE selectivity SPA assay, PDE11A; assay type: biochemical; settings: IC50 against PDE11A divided by IC50 against PDE7A
[6] = plasma and brain concentration in mice after intraperitoneal injection (LC/MS/MS); assay type: in vivo, mouse
Procedure: as §1
Just prior to the harvesting of tissues, mice were anesthetized with avertin. Samples of whole brain or plasma were collected from three animals per time point at 15 minutes, 30 minutes, 60 minutes, 120 minutes, and 240 minutes after injection. Blood samples were collected by retro-orbital bleeding. Plasma was prepared and red cells were removed by centrifugation. The mice were perfused with saline to remove contaminating blood. The brains were removed and rapidly frozen in liquid nitrogen for subsequent analysis. The plasma and brain samples were stored at −80° C. or on dry ice and the concentration of compound was determined by LC/MS/MS analysis as follows:
Whole brain tissue was homogenized using a Mini-Beaddeater-8™ (BioSpec Products, Bartlesville, Okla.). Plasma or homogenized brain samples were precipitated with acetonitrile and filtered in 96-well format using Captiva 0.20 micron filtration plates (Varian Corp, Lake Forest, Calif.). Filtrates were evaporated under nitrogen to dryness at 50° C. and were then reconstituted for LC-MS analysis.
Quantitative measurements for inhibitory compound in plasma and brain samples were obtained using a Thermo Ultra triple quadrupole mass spectrometer (Thermo Fisher Scientific, San Jose, Calif.), utilizing electrospray ionization in the multiple reaction monitoring mode of data acquisition. Sample extracts were injected onto a 2.1×30 mm packed Xterra C18-MS high pressure liquid chromatography (HPLC) column (Waters Corp, Milford, Mass.). The mobile phase eluting the compound from the HPLC column was applied using a Thermo Surveyor MS Plus HPLC quaternary pumping system (Thermo Fisher Scientific, San Jose, Calif.) and a HTC PAL autoinjector (LEAP Technologies, Chapel Hill, N.C.).

[7] = mouse, 1.0 mg/kg IP, 15 minutes
[8] = mouse, 1.0 mg/kg IP, 30 minutes post injection

Chain of PDE7A (Q13946 whole entry, looked up): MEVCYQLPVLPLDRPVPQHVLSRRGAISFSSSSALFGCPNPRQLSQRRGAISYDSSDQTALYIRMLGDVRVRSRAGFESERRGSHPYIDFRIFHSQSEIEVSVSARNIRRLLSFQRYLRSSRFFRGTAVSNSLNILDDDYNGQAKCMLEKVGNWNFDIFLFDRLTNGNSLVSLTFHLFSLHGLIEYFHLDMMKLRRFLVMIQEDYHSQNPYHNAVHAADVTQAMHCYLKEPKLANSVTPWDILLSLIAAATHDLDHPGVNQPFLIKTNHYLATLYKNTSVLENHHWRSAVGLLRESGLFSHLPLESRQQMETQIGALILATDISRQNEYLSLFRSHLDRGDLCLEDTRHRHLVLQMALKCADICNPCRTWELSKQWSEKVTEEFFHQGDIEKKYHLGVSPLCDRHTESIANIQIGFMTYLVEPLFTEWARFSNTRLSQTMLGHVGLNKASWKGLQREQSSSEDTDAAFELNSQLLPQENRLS
Chain of PDE7B (Q9NP56 107-450 limits assumed): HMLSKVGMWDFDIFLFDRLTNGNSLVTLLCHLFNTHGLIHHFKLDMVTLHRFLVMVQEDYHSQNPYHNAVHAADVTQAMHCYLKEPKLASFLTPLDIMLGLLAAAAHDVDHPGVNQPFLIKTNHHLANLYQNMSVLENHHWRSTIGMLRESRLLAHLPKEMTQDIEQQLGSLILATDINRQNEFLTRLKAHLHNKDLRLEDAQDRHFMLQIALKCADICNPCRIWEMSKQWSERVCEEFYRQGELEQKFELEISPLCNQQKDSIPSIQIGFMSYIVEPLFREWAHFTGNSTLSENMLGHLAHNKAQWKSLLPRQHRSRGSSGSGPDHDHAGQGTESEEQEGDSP
Chain of PDE8A (O60658 whole entry): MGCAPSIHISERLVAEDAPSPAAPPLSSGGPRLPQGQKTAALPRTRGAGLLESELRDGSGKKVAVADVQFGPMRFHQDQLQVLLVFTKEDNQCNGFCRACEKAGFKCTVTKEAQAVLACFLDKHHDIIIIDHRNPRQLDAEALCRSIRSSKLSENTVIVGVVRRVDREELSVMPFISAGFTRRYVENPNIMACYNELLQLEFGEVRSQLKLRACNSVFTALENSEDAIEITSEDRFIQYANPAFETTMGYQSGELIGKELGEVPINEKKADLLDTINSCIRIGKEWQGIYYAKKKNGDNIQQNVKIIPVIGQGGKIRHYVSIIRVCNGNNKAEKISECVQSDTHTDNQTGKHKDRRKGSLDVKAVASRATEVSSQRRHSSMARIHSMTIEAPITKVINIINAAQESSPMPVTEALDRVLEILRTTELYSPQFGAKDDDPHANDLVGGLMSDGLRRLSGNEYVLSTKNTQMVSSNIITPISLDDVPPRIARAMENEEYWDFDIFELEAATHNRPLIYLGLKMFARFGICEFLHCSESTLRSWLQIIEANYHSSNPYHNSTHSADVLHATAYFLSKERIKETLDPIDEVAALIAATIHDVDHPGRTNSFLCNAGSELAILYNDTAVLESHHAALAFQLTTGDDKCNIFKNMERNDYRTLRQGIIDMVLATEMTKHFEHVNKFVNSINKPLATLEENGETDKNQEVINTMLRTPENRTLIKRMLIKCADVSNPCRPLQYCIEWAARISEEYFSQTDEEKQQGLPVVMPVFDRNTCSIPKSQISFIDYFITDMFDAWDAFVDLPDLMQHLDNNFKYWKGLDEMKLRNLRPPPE
Chain of PDE11A (Q9HCR9 whole entry): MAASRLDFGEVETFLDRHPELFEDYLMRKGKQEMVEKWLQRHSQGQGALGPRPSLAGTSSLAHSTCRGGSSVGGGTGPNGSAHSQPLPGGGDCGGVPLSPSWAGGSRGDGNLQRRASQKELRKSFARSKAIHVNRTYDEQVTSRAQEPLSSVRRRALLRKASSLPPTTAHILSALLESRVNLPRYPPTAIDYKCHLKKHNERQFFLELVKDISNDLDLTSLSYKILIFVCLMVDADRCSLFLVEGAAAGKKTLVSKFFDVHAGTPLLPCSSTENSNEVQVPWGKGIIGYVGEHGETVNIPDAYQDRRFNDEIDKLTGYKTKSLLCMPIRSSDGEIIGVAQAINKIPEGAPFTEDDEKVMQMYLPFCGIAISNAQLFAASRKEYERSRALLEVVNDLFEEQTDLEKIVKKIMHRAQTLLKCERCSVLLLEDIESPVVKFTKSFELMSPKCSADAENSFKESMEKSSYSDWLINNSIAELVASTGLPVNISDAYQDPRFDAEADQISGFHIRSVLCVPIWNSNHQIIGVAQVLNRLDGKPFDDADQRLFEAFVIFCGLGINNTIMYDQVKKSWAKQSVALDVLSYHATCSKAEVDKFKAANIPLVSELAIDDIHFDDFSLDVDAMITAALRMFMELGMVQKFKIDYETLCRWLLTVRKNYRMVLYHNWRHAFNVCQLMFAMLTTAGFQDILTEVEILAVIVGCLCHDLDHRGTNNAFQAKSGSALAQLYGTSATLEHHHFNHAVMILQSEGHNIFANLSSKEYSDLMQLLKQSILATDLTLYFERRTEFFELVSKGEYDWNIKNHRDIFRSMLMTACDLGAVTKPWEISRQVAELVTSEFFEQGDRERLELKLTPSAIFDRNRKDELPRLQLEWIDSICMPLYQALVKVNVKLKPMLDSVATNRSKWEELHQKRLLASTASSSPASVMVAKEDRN

| SMILES | IC50 [2] [nM] | potency of PDE7A inhibition, in words [2] | selectivity between PDE7A and PDE7B, in words [2] | Fold Selectivity, PDE7A [2] [fold] | selectivity for inhibition of the PDE7A enzyme as compared to the other PDEs [2] | IC50 [3] [nM] | potency of PDE7B inhibition, in words [3] | Fold Selectivity for PDE7A versus PDE7B [3] [fold] | 7A/7B Ratio [3] | selectivity for inhibition of the PDE7B enzyme as compared to the other PDEs [3] | Fold Selectivity for PDE7A versus PDE8A [4] [fold] | Fold Selectivity for PDE7A versus PDE11A [5] [fold] | also measured |
| --- | --- | --- | --- | --- | --- | --- | --- | --- | --- | --- | --- | --- | --- |
| N[C@@H](Cc1ccc(O)c(O)c1)C(=O)O [L-dopa, levodopa, reference compound] | – | – | – | – | – | – | – | – | – | – | – | – | effect on stride length, in words ([1]; MPTP-treated mice, L-dopa 1 mg/kg): only a small effect; effect on stride length, in words ([1]; MPTP-treated mice, L-dopa 5 mg/kg): fully restore the stride length to that seen without MPTP treatment; dose dependence of the effect on stride length, in words ([1]; MPTP-treated mice, L-dopa 1 and 5 mg/kg): increases their stride length in a dose-dependent manner; effect on stride length of saline-treated mice, in words ([1]; L-dopa 5 mg/kg): Neither L-dopa (5 mg/kg) nor OM69 (0.1 mg/kg) altered the stride length of saline-treated mice |
| COc1cc(N)ccc1-c1cc2c(c(=O)[nH]1)C(C1CCCCC1)N=[N+]2C (stereo not drawn) [OM69] | 1.3 | high potency | little or no selectivity | 1 | greater than 1000 fold | 4.8 | high potency | 3.7 | 3.69 | 250 fold | >7700 | 7070 | brain tissue concentration [6, 7]: 25 ng/g; plasma concentration [6, 7]: 51 ng/g; peak brain level [6, 8]: 44 ng/g; peak plasma level [6, 8]: 59 ng/g; brain to plasma ratios ([6]; mouse, 1.0 mg/kg IP, all time points with levels above the lower limit of quantitation): 45-75%; brain concentration converted to molar ([6]; mouse, 30 minutes after injection of a 1 mg/kg dose): 124 nM; Ratio of Total Brain Exposure/Total Plasma Exposure ([6]; mouse, IP, AUC brain / AUC plasma, 1.0 mg/kg OM69, 10.0 mg/kg OM056, 30.0 mg/kg OM955 and OM956): 0.78; expected maximal brain concentration ([6]; mouse, dose of 0.1 mg/kg, assuming linearity of uptake and uniform brain distribution): 12.4 nM; time to wash out of mice ([6]; previously determined from pharmacokinetic studies): ≤ 12 h; effect on stride length, in words ([1]; MPTP-treated mice, OM69 0.01 mg/kg): only a small effect; effect on stride length, in words ([1]; MPTP-treated mice, OM69 0.1 mg/kg IP): fully restore the stride length to that seen without MPTP treatment; L-dopa dose with the same effect on stride length, relative to the OM69 dose ([1]; OM69 0.1 mg/kg IP versus L-dopa 5 mg/kg): 50 fold; effect on stride length of saline-treated mice, in words ([1]; OM69 0.1 mg/kg): Neither L-dopa (5 mg/kg) nor OM69 (0.1 mg/kg) altered the stride length of saline-treated mice |
| O=C1Nc2c(Cl)ccc(OCCO)c2C2(CCCCC2)N1 [OM955] | 51.8 | moderate potency | little or no selectivity | 1 | greater than 100 fold | 106 | moderate potency | 2.0 | 2.05 | greater than 50 fold | >192 | >192 | maximal brain concentration at dose where efficacy was observed ([6]; mouse, at 0.5 mg/kg, analogous calculation): 292 nM |

From US8637528B2, “Use of PDE7 inhibitors for the treatment of movement disorders” (Omeros Corporation, priority 2007, dated 2014)
